Laboratory results as given in patent US20170281650A1 (priority 2014, published 2017).
“Also recorded” adds a separate entry of the source. Where two headings read alike, the source gives them in different places.

Columns and labels:
[1] = test system: liver X receptor alpha (LXRα); test: Immunoblot of hepatic LXRα protein mass; assay type: in vivo, Golden Syrian hamsters; conditions: western blot, 6 weeks
[2] = test system: Golden Syrian hamsters; test: Analysis of liver cholesterol and dihydrocholesterol in hamster hyperlipidemia model; assay type: in vivo; conditions: 6 weeks
Description: (§1) Six different experimental diets were prepared by mixing the ingredients according to Table 1 and blending these mixtures with a gelatin solution (20 g/L) in a ratio of 200 g composition per liter of solution. Once the gelatin had set, the product were cut into pieces of approximately 10 g cubes and stored frozen at −80° C. until use.
(§2) After this acclimation period the hamsters were randomly divided into six test groups and fed one of the experimental diets for another six weeks.
Cholesterol content in organs was determined by a standard method. Cholesterol in the tissue sample was calculated according to the amount of internal standard 5α-cholestanol added.

[3] = Food intake, body and organ weight in hamster hyperlipidemia model; assay type: in vivo, Golden Syrian hamsters; conditions: 6 weeks
Description: as §1
(§3) 46 male Golden Syrian hamsters (n=46; body weights=110-120 g) were housed in wire-bottomed cages at 23° C. in an animal room with 12-hour light-dark cycle (one per cage). All hamsters were maintained on a standard cereal based diet for two weeks.
as §2

[4] = test system: Golden Syrian hamsters; test: Analysis of plasma lipoproteins (TC, HDL, non-HDL cholesterol, TG) in hamster hyperlipidemia model; assay type: in vivo; conditions: for plasma TC compared with the HCD group / plasma TG compared with the HCD group / plasma non-HDL-C compared with the HCD group: end of week 6; for dose dependence of the cholesterol-lowering effect: 0.2% versus 0.3% in diet
Description: as §1, §3, §2
Plasma total cholesterol (TC) and triacylglycerols (TG) were quantified using commercial enzymatic kits from Infinity (Waltham, Mass., U.S.A) and Stanbio Laboratories (Boerne, Tex., U.S.A.), respectively. To determine high-density lipoprotein cholesterol (HDL), low-density lipoprotein cholesterol (LDL) and very low-density lipoprotein cholesterol (VLDL) were first precipitated with a commercial kit (Stanbio) containing phosphotungstic acid and magnesium chloride. HDL cholesterol in supernatant phase was measured similarly as done for TC. Non-HDL cholesterol was calculated by deducing HDL cholesterol from TC.

[5] = test system: LDL receptor; test: mRNA of hepatic LDL receptor; assay type: in vivo, Golden Syrian hamsters; conditions: liver, 6 weeks
[6] = test system: Golden Syrian hamsters; assay type: in vivo; conditions: 6 weeks
[7] = test system: Golden Syrian hamsters; test: Analysis of fecal neutral and acidic sterols in hamster hyperlipidemia model; assay type: in vivo; conditions: for increase in excretion of cholesterol and its microbial derivatives compared with the HCD control: feces
Description: as §1, §2
Neutral and acidic sterols in the feces were quantified by a standard method using gas chromatography (GC). In brief, the total fecal sample (300 mg) from each hamster was freeze-dried, ground and well mixed. 0.3 mg of 5α-cholestanol was added as an internal standard for quantification of neutral sterols by GC analysis. The remaining aqueous layer was saved for the analysis of acidic sterols.

[8] = test system: LDL receptor; test: Immunoblot of hepatic LDL receptor protein mass; assay type: in vivo, Golden Syrian hamsters; conditions: liver, western blot; 0.3% in high cholesterol diet, 6 weeks
[9] = 0.2% in high cholesterol diet, week 6
[10] = 0.3% in high cholesterol diet, week 6

SMILES	LXRα protein mass ([1]; 0.2% in high cholesterol diet)	LXRα protein mass ([1]; 0.3% in high cholesterol diet)	decrease in liver cholesterol ([2]; 0.2% in high cholesterol diet)	hepatic cholesterol levels compared with the HCD control ([2]; 0.2% in high cholesterol diet)	decrease in liver cholesterol ([2]; 0.3% in high cholesterol diet)	hepatic cholesterol levels compared with the HCD control ([2]; 0.3% in high cholesterol diet)	epididymal fat pad weight compared with the control ([3]; 0.2% in high cholesterol diet)	kidney weight compared with HCD ([3]; 0.2% in high cholesterol diet)	liver weight compared with the HCD group ([3]; 0.2% in high cholesterol diet)	kidney weight compared with HCD ([3]; 0.3% in high cholesterol diet)	liver weight compared with the HCD group ([3]; 0.3% in high cholesterol diet)	Body Weight Final ([3]; 0.2% in high cholesterol diet)	Body Weight Final ([3]; 0.3% in high cholesterol diet)	plasma TC compared with the HCD group ([4]; 0.2% in high cholesterol diet)	plasma TG compared with the HCD group ([4]; 0.2% in high cholesterol diet)	plasma non-HDL-C compared with the HCD group ([4]; 0.2% in high cholesterol diet)	dose dependence of the cholesterol-lowering effect [4]	plasma TC compared with the HCD group ([4]; 0.3% in high cholesterol diet)	plasma TG compared with the HCD group ([4]; 0.3% in high cholesterol diet)	plasma non-HDL-C compared with the HCD group ([4]; 0.3% in high cholesterol diet)	other results
CC(C)CCC[C@@H](C)[C@H]1CC[C@H]2[C@@H]3CC[C@H]4C[C@@H](O)CC[C@]4(C)[C@H]3CC[C@]12C [DHC, dihydrocholesterol]	up-regulated LXRα slightly	up-regulated LXRα slightly	67.5%	significantly lower	71.5%	significantly lower	decreased	no significant difference	decreased	reduced	decreased	115.38 ± 9.02 g	115.43 ± 7.00 g	significantly lower; also recorded: significantly reduces	significantly lower; also recorded: significantly reduces	significantly lower	not dose-dependent	significantly lower; also recorded: significantly reduces	significantly lower; also recorded: significantly reduces	significantly lower	DHC accumulated in the liver ([2]; 0.2% DHC in high cholesterol diet (DA)): about 2 mg DHC/g liver; reducing the liver cholesterol, compared with SA and SB (β-sitosterol) ([2]; 0.2% and 0.3% diets): more effective; DHC accumulated in the liver ([2]; 0.3% DHC in high cholesterol diet (DB)): about 2 mg DHC/g liver; reducing serum TG, compared with β-sitosterol ([4]; 0.2% and 0.3% diets): more effective than β-sitosterol; mRNA level of the LDL receptor compared with the HCD control ([5]; 0.2% in high cholesterol diet): up-regulated; mRNA level of the LDL receptor compared with the HCD control ([5]; 0.3% in high cholesterol diet): up-regulated; atherosclerotic plague compared with the HCD control group ([6]; 0.2% in high cholesterol diet): significantly lesser; atherosclerotic plague compared with the HCD control group ([6]; 0.3% in high cholesterol diet): significantly lesser; excretion of total neutral sterols compared with corresponding SA and SB (β-sitosterol) groups ([7]; 0.2% and 0.3% diets, week 6): greater; total fecal neutral sterols excreted compared with the controls [7, 9]: greater; total fecal neutral sterols excreted compared with the controls [7, 10]: greater; increase in excretion of cholesterol and its microbial derivatives compared with the HCD control ([7]; 0.2% in high cholesterol diet): 11.5 fold; increase in excretion of cholesterol and its microbial derivatives compared with the HCD control ([7]; 0.3% in high cholesterol diet): 19.1 fold
CC[C@H](CC[C@@H](C)[C@H]1CC[C@H]2[C@@H]3CC=C4C[C@@H](O)CC[C@]4(C)[C@H]3CC[C@]12C)C(C)C [β-sitosterol, reference compound]	significantly up-regulated	significantly up-regulated	30.5%	significantly lower	38.4%	significantly lower	decreased	reduced	decreased	no significant difference	decreased	118.43 ± 13.74 g	112.00 ± 8.05 g	significantly lower	significantly lower	significantly lower	dose-dependent	significantly lower	significantly lower	significantly lower	LDL receptor protein [8]: significantly up-regulated; epididymal fat pad weight compared with the control ([3]; 0.3% in high cholesterol diet): decreased; reducing plasma TC, compared with DHC [4, 10]: more effective than DHC; mRNA level of the LDL receptor compared with the HCD control ([5]; 0.2% in high cholesterol diet): up-regulated; mRNA level of the LDL receptor compared with the HCD control ([5]; 0.3% in high cholesterol diet): up-regulated; reducing the formation of atherosclerotic plague, compared with DA and DB (DHC) diets ([6]; 0.2% and 0.3% diets): more effective; atherosclerotic plague compared with the HCD control group ([6]; 0.2% in high cholesterol diet): significantly lesser; atherosclerotic plague compared with the HCD control group ([6]; 0.3% in high cholesterol diet): significantly lesser; excretion of acidic sterols compared with corresponding DA and DB (DHC) groups ([7]; 0.2% and 0.3% diets, week 6): greater; total fecal neutral sterols excreted compared with the controls [7, 9]: greater; total fecal neutral sterols excreted compared with the controls [7, 10]: greater
